Measured values reported in patent publication US20200237759A1, “DOSAGE REGIME AND METHOD FOR TREATING PULMONARY ARTERIAL HYPERTENSION” (Altavant Sciences GmbH, priority 2019, published 2020).

What was measured:
[1] = Part 1 SAD urine pharmacokinetics (urinary excretion, renal clearance); format: in vivo, human
Procedure: Renal clearance of KAR5417 was calculated from the area under the plasma time concentration curve (AUC0-96) for KAR5417 and the amount of KAR5417 recovered in urine (Table 21).

[2] = Part 1 SAD plasma pharmacokinetics of KAR5585 and KAR5417 after a single oral dose of KAR5585 (fasting; fed food effect); details: for AUC0-inf Geometric Mean / AUC0-tau Geometric Mean / Cmax Geometric Mean: 400 mg KAR5585 single oral dose
Procedure: Food effect was to be evaluated in Part 1, Period 2. Part 2 was permitted to begin before Part 1 was completed and, in each part, the data from each dose Cohort were to be reviewed for safety before the next dose Cohort was enrolled.
Part 1 had 6 Cohorts of 12 subjects each (for a total of 72 subjects) and Part 2 had 4 Cohorts of 12 subjects each (for a total of 48 subjects). In Part 1, the 12 subjects in Cohort 3 (400 mg) were studied twice, once under fasting conditions (Period 1) and once under fed conditions (Period 2) for food-effect assessment.
Pharmacokinetic data were to be summarized descriptively.

[3] = test system: plasma 5-HIAA (a PD marker of 5-HT synthesis); assay: Part 2 MAD biomarker: plasma 5-HIAA change from Day 1; format: in vivo, human; details: Day 14
Description: Biomarkers were to be evaluated in Part 2 by measuring concentrations of serotonin (5-hydroxytryptamine [5-HT]) in serum and 5-hydroxyindoleacetic acid (5-HIAA) in plasma and urine. As well, the relationship of biomarkers to PK parameters was to be evaluated.
The biomarker analysis was to be based on the Biomarker Population (all subjects with evaluable biomarker measurements at baseline [Day 1 predose] and at least one after dosing [Day 7 or Day 14]).
Biomarker data were to be collected only in Part 2. The following biomarkers were to be analyzed: • Serum 5-HT • Plasma 5-HIAA • Urine 5-HIAA/24 hours (as measured, adjusted, estimated, and per gram creatinine)
The a priori primary biomarker endpoint was to be the change in plasma 5-HIAA concentration on Day 14 from Day 1.
Linear regression was to be performed using biomarker changes, absolute and relative (%), from Day 1, at predose on Day 7 or Day 14 versus AUC0-24, Cmax, and Cmin in corresponding study days. The slopes and corresponding 95% confidence intervals (CIs) were to be tabulated.
Summary statistics (mean, standard deviation [SD], median, minimum [Min], and maximum [Max]) were to be tabulated for each biomarker, by Cohort, with absolute and relative (%) changes from Day 1 predose.
The values were to be tabulated with P values testing whether the difference of changes was equal to 0.
The biomarker portion of the study was conducted in Part 2 MAD using the Biomarker Population. The biomarkers evaluated were serum 5-HT and plasma 5-HIAA, as well as urine 5-HIAA/24 hours (as measured, adjusted, estimated, and per gram creatinine). Urinary 5-HIAA was determined by a validated (21 C.F.R. 58, GLP-compliant) method using liquid chromatographic separation and tandem mass spectrometry detection.
The Biomarker Population consisted of all subjects with evaluable baseline (Day 1 predose) and at least one postdose (Day 7 or Day 14) biomarker measurements.
Biomarker data were analyzed for each KAR5585 dose separately, for all KAR5585 doses pooled, and for all placebo subjects pooled. […]

[4] = KAR5585 700 mg single oral dose
[5] = 100 mg to 700 mg single dose, 7-fold increase in dose
[6] = 700 mg to 2000 mg single dose, 2.86-fold increase in dose
[7] = arithmetic mean, plasma KAR5417 after single oral 100 mg KAR5585, fasted, Cohort 1
[8] = arithmetic mean, plasma KAR5417 after single oral 700 mg KAR5585, fasted, Cohort 4
[9] = arithmetic mean, plasma KAR5417 after single oral 1200 mg KAR5585, fasted, Cohort 5
[10] = geometric mean, plasma KAR5417 after single oral 200 mg KAR5585, fasted, Cohort 2
[11] = geometric mean, plasma KAR5417 after single oral 400 mg KAR5585, fed, Cohort 3B
[12] = geometric mean, plasma KAR5417 after single oral 1200 mg KAR5585, fasted, Cohort 5
[13] = geometric mean, plasma KAR5417 after single oral 2000 mg KAR5585, fasted, Cohort 6

With `Nc1nc(O[C@H](c2ccc(Cl)cc2-c2ccccc2)C(F)(F)F)cc(N2CCC3(CC2)CN[C@H](C(=O)O)C3)n1` [KAR5417, (S)-8-(2-amino-6-((R)-1-(5-chloro-[1,1′-biphenyl]-2-yl)-2,2,2-trifluoroeth-oxy)pyrimidin-4-yl)-2,8-diazaspiro[4.5]decane-3-carboxylic acid] the “highest amount excreted in urine, of the dose” value ([1]; 400 mg fed Cohort (Cohort 3B)) was 0.331%, the “Plasma AUC0-96 Mean” value ([1]; KAR5585 100 mg single oral dose) was 889 ng·h/mL and the “Plasma AUC0-96 Mean” value ([1]; KAR5585 400 mg single oral dose, fasted) was 3630 ng·h/mL. For the same compound, the “Plasma AUC0-96 Mean” value ([1]; KAR5585 400 mg single oral dose, fed) was 6590 ng·h/mL, the “CLR Mean” value [1, 4] was 191 mL/h and the “Plasma AUC0-96 Mean” value [1, 4] was 5990 ng·h/mL. For the same compound, the “CLR Mean” value ([1]; KAR5585 1200 mg single oral dose) was 157 mL/h, the “increase in mean Cmax” value ([2]; 100 mg (Cohort 1) to 700 mg (Cohort 4), 7-fold increase in dose) was 7.27 fold and the “increase in mean AUC0-24” value [2, 5] was 6.3 fold. The “increase in mean AUC0-inf” value [2, 5] was 6.8 fold, the “exposure (AUC0-tau and AUC0-inf) under fed relative to fasting conditions” value ([2]; 400 mg KAR5585 single dose) was “approximately 2 fold” and the “increase in Cmax, fed relative to fasting” value ([2]; 400 mg KAR5585 single dose) was 1.8 fold. For the same compound, the “increase in mean AUC0-inf, fed relative to fasting” value ([2]; 400 mg KAR5585 single dose) was 1.8 fold, the “peak exposure (Cmax) higher under fed relative to fasting conditions” value ([2]; 400 mg KAR5585 single dose) was “approximately 1.87 fold” and the “peak mean concentrations higher under fed relative to fasting conditions” value ([2]; 400 mg KAR5585 single dose) was “approximately 177%”. The tmax ([2]; 400 mg KAR5585 single dose, fasted) was 4 hour postdose, the “increase in mean Cmax” value ([2]; 700 mg (Cohort 4) to 2000 mg (Cohort 6), 2.86-fold increase in dose) was 1.38 fold and the “increase in AUC0-24” value [2, 6] was 1.7 fold. The “increase in AUC0-inf” value [2, 6] was 1.81 fold, the AUC0-inf Geometric Mean ([2]; Cohort 3A (Fasting)) was 3280 ng·h/mL and the AUC0-tau Geometric Mean ([2]; Cohort 3A (Fasting)) was 3120 ng·h/mL. The Cmax Geometric Mean ([2]; Cohort 3A (Fasting)) was 444 ng/mL, the “Cmax Geometric LS Mean Ratio” value ([2]; Cohort 3B (Fed) versus Cohort 3A (Fasting), 400 mg KAR5585) was 1.87 and the AUC0-inf Geometric Mean ([2]; Cohort 3B (Fed)) was 6630 ng·h/mL. For the same compound, the AUC0-tau Geometric Mean ([2]; Cohort 3B (Fed)) was 6360 ng·h/mL, the Cmax Geometric Mean ([2]; Cohort 3B (Fed)) was 831 ng/mL and the “time by which all subjects had measurable concentrations” value ([2]; Part 1 SAD) was no more than 0.25 hours postdose. The “plasma concentrations relative to plasma concentrations of KAR5585” value ([2]; Part 1 SAD, fasting) was “approximately 10 fold”, the AUC0-12 [2, 7] was 704 ng·h/mL and the “AUC0-∞” value [2, 7] was 886 ng·h/mL. The t1/2 [2, 7] was 4.67 h, the AUC0-12 [2, 8] was 4350 ng·h/mL and the AUC0-24 [2, 8] was 5310 ng·h/mL. It also gave an AUC0-12 [2, 9] of 5350 ng·h/mL, a Cmax [2, 9] of 896 ng/mL and an AUC0-12 ([2]; arithmetic mean, plasma KAR5417 after single oral 2000 mg KAR5585, fasted, Cohort 6) of 6910 ng·h/mL. The AUC0-24 [2, 10] was 940 ng·h/mL, the t1/2 [2, 10] was 5.29 h and the AUC0-12 [2, 11] was 4170 ng·h/mL. The AUC0-24 [2, 11] was 5370 ng·h/mL, the AUC0-tau [2, 11] was 6360 ng·h/mL and the “AUC0-∞” value [2, 11] was 6630 ng·h/mL. The Cmax [2, 11] was 831 ng/mL, the t1/2 [2, 11] was 19.8 h and the AUC0-12 ([2]; geometric mean, plasma KAR5417 after single oral 700 mg KAR5585, fasted, Cohort 4) was 3050 ng·h/mL. For the same compound, the AUC0-tau [2, 12] was 6580 ng·h/mL, the “AUC0-∞” value [2, 12] was 6880 ng·h/mL and the Cmax [2, 12] was 764 ng/mL. It also gave a t1/2 [2, 12] of 14.0 h, an AUC0-12 [2, 13] of 6550 ng·h/mL and a Cmax [2, 13] of 1030 ng/mL. The t1/2 [2, 13] was 22.1 h, the tmax ([2]; median, plasma KAR5417 after single oral 100 mg KAR5585, fasted, Cohort 1) was 4.00 h and the tmax ([2]; median, plasma KAR5417 after single oral 400 mg KAR5585, fed, Cohort 3B) was 4.00 h. For the same compound, the tmax ([2]; median, plasma KAR5417 after single oral 700 mg KAR5585, fasted, Cohort 4) was 4.00 h, the “time up to which concentrations remained above the LLOQ” value ([2]; single 100 mg KAR5585, fasting) was “up to 12 hours” and the “mean apparent terminal (elimination) half-life” value ([2]; single 100 mg dose of KAR5585) was 4.67 h. The “time up to which concentrations remained above the LLOQ” value ([2]; single 200 mg KAR5585, fasting) was no more than 24 h, the “time up to which concentrations remained above the LLOQ” value ([2]; single 400 mg KAR5585, fasting) was no more than 36 h and the “time up to which concentrations remained above the LLOQ” value ([2]; single 700 mg KAR5585, fasting) was no more than 48 h. The “time up to which concentrations remained above the LLOQ” value ([2]; single 1200 mg KAR5585, fasting) was no more than 48 h, the “time up to which concentrations remained above the LLOQ” value ([2]; single 2000 mg KAR5585, fasting) was no more than 72 h and the elimination half-life ([2]; single dose 400 mg KAR5585, Part 1 Cohort 3B) was 20.5 h. For the same compound, the “correlation of absolute and relative changes from baseline in plasma 5-HIAA with AUC0-24, Cmax, C12 and AUC0-12” value [3] was “significantly correlated”.
